Assay results reported in patent EP4806891A1 (Kangbaida (Sichuan) Biotechnology Co., Ltd., priority 2023, dated 2025).

Legend:
IL-6 = assay: In vivo inhibition assay of IL-6; design: species or system C57BL/6 female mice; settings: Mus musculus, ip; mice, test compound 1 mg/kg by gavage, 25 µg R848 intraperitoneally 1 h later, serum IL-6 2 h later; read-out: IL-6 inhibition rate (intraperitoneal injection after 1 h)
Description: In vivo inhibition assay of IL-6
Experimental materials: Preparation of compound solutions: R848 was prepared with pure water (sterilized), with a final concentration of 25 µg/100 µL; the test compound was prepared with sodium citrate buffer at pH = 3, with a final concentration of 0.1 mg/mL.
Experimental animals: C57BL/6 female mice were purchased from GemPharmatech, aged 6-8 weeks.
Experimental methods: C57BL/6 female mice were randomly divided into a blank group, control group, and experimental group, with 8 in each group.
Blank group: Blood was collected from the mice after 12 h of fasting.
Control group: The mice were administered sodium citrate buffer at pH = 3 by gavage after 12 hours of fasting, and the remaining procedures were consistent with those of the experimental group.
Experimental group: After fasting for 12 h, the mice were administered with the test compound (1 mg/kg) by gavage, followed by an intraperitoneal injection of 25 µg R848 (purchased from MCE) 1 h later; 2 h later, the eyeballs were removed for blood collection, the serum was allowed to stand at room temperature for 30 min, then centrifuged for 10 min (3000 rpm), the supernatant was collected, and the serum IL-6 concentration was measured using an IL-6 ELISA kit. The IL-6 inhibition rate was calculated based on the serum IL-6 concentrations of the control and experimental groups. Calculation formula: inhibition rate = (C2-C3)/(C2-C1)×100%. • C1: serum IL-6 concentration of the blank group; • C2: serum IL-6 concentration of the control group; • C3: serum IL-6 concentration of the experimental group.
Four additional groups of experiments were performed separately according to the above experimental procedures, and the differences between these four groups and the above experiment were respectively: "25 µg R848 (purchased from MCE) was intraperitoneally injected after 4 h", "25 µg R848 (purchased from MCE) was intraperitoneally injected after 8 h", "25 µg R848 (purchased from MCE) was intraperitoneally injected after 16 h", and "25 µg R848 (purchased from MCE) was intraperitoneally injected after 24 h". Table 2: In vivo inhibition assay of IL-6

HEK-Blue-hTLR8 cells = target: T1, HEK-Blue-hTLR8 cells (Homo sapiens, UniProt Q9NR97); assay: HEK-Blue-hTLR8 cell inhibition assay; assay type: cell-based; settings: R848 3 µM, 16 h, OD 620 nm, read-out: TLR8 IC50
T1 construct: expressed in transfected cells; host or cells: HEK-Blue-hTLR8 cells (HEK293-derived reporter line)
T1 sequence (Q9NR97 27-1041): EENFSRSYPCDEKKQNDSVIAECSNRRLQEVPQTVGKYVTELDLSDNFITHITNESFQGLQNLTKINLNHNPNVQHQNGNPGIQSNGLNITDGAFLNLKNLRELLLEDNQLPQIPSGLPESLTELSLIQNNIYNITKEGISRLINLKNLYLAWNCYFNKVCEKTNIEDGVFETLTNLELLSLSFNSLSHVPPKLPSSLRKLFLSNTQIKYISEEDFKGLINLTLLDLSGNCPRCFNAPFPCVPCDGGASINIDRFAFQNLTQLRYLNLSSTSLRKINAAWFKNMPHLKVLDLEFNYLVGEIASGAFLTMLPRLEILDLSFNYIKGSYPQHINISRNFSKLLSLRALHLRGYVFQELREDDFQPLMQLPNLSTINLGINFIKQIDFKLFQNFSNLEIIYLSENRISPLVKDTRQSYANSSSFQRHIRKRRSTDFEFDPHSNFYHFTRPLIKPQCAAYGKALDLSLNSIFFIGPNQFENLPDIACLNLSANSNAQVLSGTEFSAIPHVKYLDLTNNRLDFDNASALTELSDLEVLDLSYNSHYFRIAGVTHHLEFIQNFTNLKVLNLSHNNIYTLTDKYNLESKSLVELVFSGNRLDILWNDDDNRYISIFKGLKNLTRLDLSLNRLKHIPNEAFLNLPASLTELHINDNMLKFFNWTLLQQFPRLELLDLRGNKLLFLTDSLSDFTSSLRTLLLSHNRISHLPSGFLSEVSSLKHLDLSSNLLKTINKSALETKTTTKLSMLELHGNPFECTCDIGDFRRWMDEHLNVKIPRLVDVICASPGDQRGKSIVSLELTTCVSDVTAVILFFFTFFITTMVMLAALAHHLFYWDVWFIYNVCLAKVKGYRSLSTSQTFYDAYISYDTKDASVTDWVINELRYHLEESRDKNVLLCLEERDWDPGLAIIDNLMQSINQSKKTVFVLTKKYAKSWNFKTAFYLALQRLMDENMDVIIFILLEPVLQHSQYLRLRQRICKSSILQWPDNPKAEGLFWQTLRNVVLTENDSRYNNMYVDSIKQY
How it was run: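 Cells were pre-incubated 4 h, then co-treated 16 h at 37 °C with compound (10 doses, 0.5–10000 nM final) plus R848 (0.8 µM for TLR7, 3 µM for TLR8) or ODN2006 (1 µM, TLR9). Reporter OD620 gave inhibition relative to DMSO blank and agonist-only controls; IC50 came from curve fitting.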

SMILES	IC50 (HEK-Blue-hTLR8 cells)	inhibition at 1 mg/kg (IL-6)
CN1CC(Cc2nnc([C@]34CN(c5ccc(C#N)n6ncc(F)c56)C[C@@]3(C(F)(F)F)C4)o2)C1 [Compound 30, 3-fluoro-4-((1S,5R)-1-(5-((1-methylazetidin-3-yl)methyl)-1,3,4-oxadiazol-2-yl)-5-(trifluoromethyl)-3-azabicyclo[3.1.0]hexan-3-yl)pyrazolo[1,5-a]pyridine-7-carbonitrile]	< 100 nM	> 90%
CN1CCC(c2nnc([C@]34CN(c5ccc(OC(F)(F)F)c6ncccc56)C[C@@]3(C(F)(F)F)C4)o2)CC1 [Compound 64, 2-(1-methylpiperidin-4-yl)-5-((1S,5R)-5-(trifluoromethyl)-3-(8-(trifluoromethoxy)quinolin-5-yl)-3-azabicyclo[3.1.0]hexan-1-yl)-1,3,4-oxadiazole]	< 100 nM	> 70%
CN1CCC(c2nnc([C@]34CN(c5ccc(C#N)c6ncnn56)C[C@@]3(C(F)(F)F)C4)o2)CC1 [Compound 91, 5-((1S,5R)-1-(5-(1-methylpiperidin-4-yl)-1,3,4-oxadiazol-2-yl)-5-(trifluoromethyl)-3-azabicyclo[3.1.0]hexan-3-yl)-[1,2,4]triazolo[1,5-a]pyridine-8-carbonitrile]	< 100 nM	
CN1CCC(Oc2nnc([C@]34CN(c5ccc(OC(F)(F)F)c6ncccc56)C[C@@]3(C(F)(F)F)C4)o2)CC1 [Compound 93, 2-((1-methylpiperidin-4-yl)oxy)-5-((1S,5R)-5-(trifluoromethyl)-3-(8-(trifluoromethoxy)quinolin-5-yl)-3-azabicyclo[3.1.0]hexan-1-yl)-1,3,4-oxadiazole]	< 100 nM	
CN1CCC(O)(c2nnc([C@]34CN(c5ccc(C(F)(F)F)c6ncccc56)C[C@@]3(C(F)(F)F)C4)o2)CC1 [Compound 94, 1-methyl-4-(5-((1S,5R)-5-(trifluoromethyl)-3-(8-(trifluoromethyl)quinolin-5-yl)-3-azabicyclo[3.1.0]hexan-1-yl)-1,3,4-oxadiazol-2-yl)piperidin-4-ol]	< 100 nM	
FC(F)(F)Oc1ccc(N2C[C@]3(c4nnc(C5(F)CCNCC5)o4)C[C@]3(C(F)(F)F)C2)c2cccnc12 [Compound 96, 2-(4-fluoropiperidin-4-yl)-5-((1S,5R)-3-(8-(trifluoromethoxy)quinolin-5-yl)-5-(trifluoromethyl)-3-azabicyclo[3.1.0]hexan-1-yl)-1,3,4-oxadiazole]	< 100 nM	

More lines, main results first:

IC50 (HEK-Blue-hTLR8 cells)	SMILES	inhibition at 1 mg/kg (IL-6)
< 100 nM	CN1CCC(c2nnc([C@]34CN(c5ccc(C#N)n6ncc(F)c56)C[C@@]3(C(F)(F)F)C4)o2)CC1 [Compound 57, 3-fluoro-4-((1S,5R)-1-(5-(1-methylpiperidin-4-yl)-1,3,4-oxadiazol-2-yl)-5-(trifluoromethyl)-3-azabicyclo[3.1.0]hexan-3-yl)pyrazolo[1,5-a]pyridine-7-carbonitrile]	> 90%
< 1000 nM	CN1CCC(c2nnc([C@]34CN(c5ccc(C#N)n6nccc56)C[C@@]3(C(F)(F)F)C4)o2)CC1 [Compound 59, 4-((1S,5R)-1-(5-(1-methylpiperidin-4-yl)-1,3,4-oxadiazol-2-yl)-5-(trifluoromethyl)-3-azabicyclo[3.1.0]hexan-3-yl)pyrazolo[1,5-a]pyridine-7-carbonitrile]	> 80%
< 100 nM	CN1CCC(F)(c2nnc([C@]34CN(c5ccc(C#N)n6nccc56)C[C@@]3(C(F)(F)F)C4)o2)CC1 [Compound 90, 4-((1S,5R)-1-(5-(4-fluoro-1-methylpiperidin-4-yl)-1,3,4-oxadiazol-2-yl)-5-(trifluoromethyl)-3-azabicyclo[3.1.0]hexan-3-yl)pyrazolo[1,5-a]pyridine-7-carbonitrile]	
< 100 nM	CN1CCC(Oc2nnc([C@]34CN(c5ccc(C(F)(F)F)c6ncccc56)C[C@@]3(C(F)(F)F)C4)o2)CC1 [Compound 92, 2-((1-methylpiperidin-4-yl)oxy)-5-((1S,5R)-5-(trifluoromethyl)-3-(8-(trifluoromethyl)quinolin-5-yl)-3-azabicyclo[3.1.0]hexan-1-yl)-1,3,4-oxadiazole]	
< 100 nM	CN1CC(Cc2nnc([C@]34CN(c5ccc(C(F)(F)F)c6ncccc56)C[C@@]3(C(F)(F)F)C4)o2)C1 [Compound 95, 2-((1-methylazetidin-3-yl)methyl)-5-((1S,5R)-5-(trifluoromethyl)-3-(8-(trifluoromethyl)quinolin-5-yl)-3-azabicyclo[3.1.0]hexan-1-yl)-1,3,4-oxadiazole]	> 90%
< 100 nM	CN1CCC(Oc2nnc([C@]34CN(c5ccc(C#N)c6ncnn56)C[C@@]3(C(F)(F)F)C4)o2)CC1 [Compound 97, 5-((1S,5R)-1-(5-((1-methylpiperidin-4-yl)oxy)-1,3,4-oxadiazol-2-yl)-5-(trifluoromethyl)-3-azabicyclo[3.1.0]hexan-3-yl)-[1,2,4]triazolo[1,5-a]pyridine-8-carbonitrile]	> 90%
